Assay results reported in US20160030415A1, “TREATMENT AND PROPHYLAXIS OF KIDNEY DISEASES” (priority 2013, published 2016).

Test system: STZ induced diabetic nephropathy in rats
Assay: Study 4: HCQ and its combination with Losartan, Telmisartan, Azilsartan and Ramipril, with Glimepiride control
Format: in vivo, Wistar rats
Conditions: for HDL / TC / TG / GSH / TBARS / Total protein kidney / Creatinine / Total protein / Urea: after 8th week; for Glucose Day1 / Glucose Day14 / Glucose Day28 / Glucose Day42 / Glucose Day56: blood; for GSH / TBARS / Total protein kidney: kidney homogenate; for Creatinine / Total protein / Urea: serum
Experimental: The methods described in Terri et al, Diabetes Volume, 1997, 46:1612-1618, and Takashi et al, Jpn J. Pharmacol, 1997, 75, 59-64, were followed for inducing Diabetes in rats by injecting Streptozotocin. The Efficacy of the drugs was tested in two different models, one involving comparison with diabetic control (i.e. Diabetic Rats not treated with any medication) and the other involving comparison with the anti-diabetic control group (i.e. Diabetic rats administered Glimepiride) in two separate studies.
Wistar rats of either sex weighing 150-200 g were divided randomly into 28 groups consisting of 6 animals each. Diabetes was induced in rats by single administration of streptozotocin (55 mg/kg/i.p) dissolved in 0.1 M-citrate buffer, pH 4.5. Group 1 (normal control) consisted of normal rats that neither received streptozotocin nor any test drug; Group 2 served as Diabetic control; Group 3 was diabetic rats treated with Hydroxychloroquine (35 mg/kg); Group 4 was diabetic rats treated with Hydroxychloroquine (45 mg/kg) and Group 5 was diabetic rats treated with Hydroxychloroquine (70 mg/kg); Group 6 was diabetic rats treated with Losartan (5.5 mg/kg); Group 7 was diabetic rats treated with Losartan (11 mg/kg); Group 8 was diabetic rats treated with combination of Losartan (5.5 mg/kg) and Hydroxychloroquine (45 mg/kg); Group 9 was diabetic rats treated with combination of Losartan (11 mg/kg) and Hydroxychloroquine (35 mg/kg); Group 10 was diabetic rats treated with Ramipril (0.6 mg/kg); Group 11 was diabetic rats treated with Ramipril (0.3 mg/kg); Group 12 was diabetic rats treated with combination of Ramipril (0.6 mg/kg) and Hydroxychloroquine (35 mg/kg); Group 13 was diabetic rats treated with combination of Ramipril (0.3 mg/kg) and Hydroxychloroquine (45 mg/kg); Group 14 was diabetic rats treated with combination of Ramipril (0.6 mg/kg) and Hydroxychloroquine (45 mg/kg); Group 15 was diabetic rats treated with combination of Ramipril (0.3 mg/kg) and Hydroxychloroquine (35 mg/kg); Group 16 was diabetic rats treated with Telmisartan (9.5 mg/kg); Group 17 was diabetic rats treated with Telmisartan (4.5 mg/kg); Group 18 was diabetic rats treated with combination of Telmisartan (9.5 mg/kg) and Hydroxychloroquine (35 mg/kg); Group 19 was diabetic rats treated with combination of Telmisartan (4.5 mg/kg) and Hydroxychloroquine (45 mg/kg); Group 20 was diabetic rats treated with combination of Telmisartan (9.5 mg/kg) and Hydroxychloroquine (45 mg/kg); Group 21 was diabetic rats treated with combination of Telmisartan (4.5 mg/kg) and Hydroxychloroquine (35 mg/kg); Group 22 was diabetic rats treated with Azilsartan (4.5 mg/kg); Group 23 was diabetic rats treated with Azilsartan (2.5 mg/kg); Group 24 was diabetic rats treated with combination of Azilsartan (4.5 mg/kg) and Hydroxychloroquine (35 mg/kg); Group 25 was diabetic rats treated with combination of Azilsartan (2.5 mg/kg) and Hydroxychloroquine (45 mg/kg); Group 26 was diabetic rats treated with combination of Azilsartan (4.5 mg/kg) and Hydroxychloroquine (45 mg/kg); Group 27 was diabetic rats treated with combination of Azilsartan (2.5 mg/kg) and Hydroxychloroquine (35 mg/kg); Group 28 served as Anti-Diabetic control wherein diabetic rats were treated with antidiabetic drug Glimepiride (GLM) (1 mg/kg).
The study drugs were dissolved/suspended in vehicle and administered orally once a day for eight weeks. The diabetes mellitus induced nephropathy was assessed by estimating the level of serum urea, serum creatinine and total serum protein content after completion of eighth week of study. TBARS, GSH and Total Protein were measured as markers of renal oxidative stress in Kidney Homogenate after completion of eighth week of study. Blood glucose levels were also assessed at weekly interval.

[1] = dose mg/kg: HCQ 35, LT 5.5, RM 0.3, TL 4.5, AZ 2.5, alone or combined with HCQ 35
[2] = dose mg/kg: HCQ 45, LT 11, RM 0.6, TL 9.5, AZ 4.5, alone or combined with HCQ 45

Row | Compound | HDL [1] [mg/dL] | TC [1] [mg/dL] | TG [1] [mg/dL] | HDL [2] [mg/dL] | TC [2] [mg/dL] | TG [2] [mg/dL] | Glucose Day1 [1] [mg/dL] | Glucose Day1 [2] [mg/dL] | Glucose Day14 [1] [mg/dL] | Glucose Day14 [2] [mg/dL] | Glucose Day28 [1] [mg/dL] | Glucose Day28 [2] [mg/dL] | Glucose Day42 [1] [mg/dL] | Glucose Day42 [2] [mg/dL] | Glucose Day56 [1] [mg/dL] | Glucose Day56 [2] [mg/dL] | GSH [1] [nM/mg] | TBARS [1] [nM/mg] | Total protein kidney [1] [µg/mL] | GSH [2] [nM/mg] | also measured
1 | CCOc1nc2cccc(C(=O)O)c2n1Cc1ccc(-c2ccccc2-c2nc(=O)o[nH]2)cc1 [Azilsartan] | 27.17 ± 1.17 | 142 ± 2.1 | 97 ± 5.66 | 26.67 ± 1.51 | 141.17 ± 2.32 | 103 ± 3.9 | 267.17 ± 12.21 | 278.5 ± 14.22 | 215.5 ± 14.01 | 224.17 ± 17.93 | 180 ± 8.00 | 179 ± 7.13 | 160.67 ± 6.12 | 158.67 ± 6.77 | 141 ± 6.924 | 139.83 ± 4.79 | 0.86 ± 0.21 | 0.6 ± 0.11 | 874.5 ± 21.80 | 1.26 ± 0.44 | TBARS [2]: 0.58 ± 0.14 nM/mg; Total protein kidney [2]: 837.5 ± 20.15 µg/mL; Creatinine [1]: 3.61 ± 0.16 mg/dL; Total protein [1]: 4.76 ± 0.15 g/dL; Urea [1]: 40.83 ± 2.64 mg/dL; Creatinine [2]: 3.44 ± 0.28 mg/dL; Total protein [2]: 4.99 ± 0.25 g/dL; Urea [2]: 41 ± 3.58 mg/dL
2 | CCOC(=O)[C@H](CCc1ccccc1)N[C@@H](C)C(=O)N1[C@H](C(=O)O)C[C@@H]2CCC[C@@H]21 [Ramipril] | 27.17 ± 1.47 | 138.33 ± 2.94 | 100.17 ± 5 | 27.33 ± 1.63 | 142.17 ± 3.31 | 98.5 ± 4.93 | 281.5 ± 18.2 | 260 ± 17.19 | 216.17 ± 21.48 | 203 ± 14.07 | 174.17 ± 9.06 | 174.33 ± 8.91 | 158.5 ± 9.07 | 157.67 ± 9.18 | 145.33 ± 6.38 | 141.67 ± 5.47 | 1.16 ± 0.62 | 0.67 ± 0.1 | 835.33 ± 22.27 | 1.16 ± 0.59 | TBARS [2]: 0.62 ± 0.15 nM/mg; Total protein kidney [2]: 810 ± 17.12 µg/mL; Creatinine [1]: 3.37 ± 0.32 mg/dL; Total protein [1]: 4.76 ± 0.28 g/dL; Urea [1]: 41.33 ± 1.97 mg/dL; Creatinine [2]: 3.68 ± 0.24 mg/dL; Total protein [2]: 4.77 ± 0.21 g/dL; Urea [2]: 41 ± 1.79 mg/dL
3 | CCCc1nc2c(C)cc(-c3nc4ccccc4n3C)cc2n1Cc1ccc(-c2ccccc2C(=O)O)cc1 [Telmisartan] | 26 ± 1.67 | 138.67 ± 3.93 | 100.33 ± 5.57 | 26.83 ± 1.47 | 141.5 ± 2.88 | 97.67 ± 6.09 | 281.83 ± 12.46 | 275.33 ± 15.45 | 221.83 ± 12.37 | 221.5 ± 16.02 | 181.83 ± 5.04 | 184.33 ± 8.31 | 162 ± 9.21 | 159.83 ± 7.03 | 139 ± 7.85 | 141 ± 7.07 | 0.86 ± 0.06 | 0.65 ± 0.15 | 879.17 ± 29.41 | 0.96 ± 0.11 | TBARS [2]: 0.54 ± 0.14 nM/mg; Total protein kidney [2]: 864.5 ± 25.65 µg/mL; Creatinine [1]: 3.68 ± 0.31 mg/dL; Total protein [1]: 4.93 ± 0.23 g/dL; Urea [1]: 42.67 ± 2.5 mg/dL; Creatinine [2]: 3.91 ± 0.15 mg/dL; Total protein [2]: 4.61 ± 0.18 g/dL; Urea [2]: 41.5 ± 2.35 mg/dL
